Source: US9187474B2, “Raf inhibitor compounds” (Deciphera Pharmaceuticals, LLC, priority 2012, dated 2015)
Where a name gives a salt, the structure may show the parent alone.

Tests used:
A375res cells [1] = test system: A375res cells
Description: (§1) A vemurafenib-resistant cell line is generated by chronic treatment of the human melanoma cell line A375 (ATCC) harboring the B-Raf V600E mutation with increasing concentrations PLX4720.

[2] = test system: phospho-ERK in A375 (B-Raf V600E) xenograft; assay: A375 mouse xenograft pharmacodynamic assay (tumor pERK by ELISA); format: in vivo, mice; conditions: 2 h post dose, vs vehicle, read-out: Measured pERK inhibition 2 h post dose; for inhibition in vivo at 20 mg/kg: A-375, 20 mg/kg oral
Description: To evaluate the in vivo pharmacodynamic (PD) effects of compounds of Formula I, an A375 (B-Raf V600E) xenograft model is employed. Briefly, 10×10^6 A375 tumor cells (ATCC) are prepared in a 1:1 matrigel mix (0.2 mL total volume) and implanted by subcutaneous injection in hind leg of nude female mice. A total of 4 mice each for each dosing group are employed. Treatment is initiated with oral administration (gavage) of test compound or vehicle (20% captisol, 25 mM phosphate, pH2.0) in 0.2 mL volume when average tumor size reaches approximately 300 mg. After a fixed time interval, the tumors are harvested and the phospho-ERK levels are measured by ELISA (Enzyme-linked immunosorbent assay). Treated groups are compared to the vehicle control group to calculate % inhibition.

[3] = test system: phospho-ERK in HCT-116 cells; assay: HCT-116 cell pERK assay (AlphaScreen SureFire); format: cell-based; conditions: Homo sapiens; HCT-116 cells, B-Raf wild type, K-Ras mutation; 4 hours; read-out: IC50 reduction of phospho-ERK signal
Description: Examples of Formula I are tested against HCT-116 cells harboring wild type B-Raf and K-Ras mutation. The phospho-ERK activities are evaluated as described below.
HCT-116 cells (catalog #CCL-247) are obtained from the American Type Culture Collection (ATCC, Manassas, Va.). Briefly, cells are grown in McCoy's 5A supplemented with 10% characterized fetal bovine serum (Invitrogen, Carlsbad, Calif.), and 1% Penicillin/Streptomycin/L-Glutamine at 37 degrees Celsius, 5% CO2, and 95% humidity. Cells are allowed to expand until reaching 75-90% confluency at which point they are subcultured or harvested for assay use. HCT-116 cells suspended in complete media are added to 384-well tissue culture treated plates (3×10^5 cells/mL; 7,500 cells per well). The cells are incubated overnight at 37 degrees Celsius, 5% CO2, and 95% humidity. Next, test compound or DMSO diluted in complete media is added to the wells (0.25% final DMSO concentration). The plates are then incubated for 4 hours at 37 degrees Celsius, 5% CO2, and 95% humidity. Following compound incubation, the cells are lysed at 4° C. for 20 minutes with shaking Cell lysates are centrifuged and the supernatant is transferred to a new plate. An aliquot of each lysate is transferred to a white 384-well assay plate. Using the AlphaScreen SureFire pERK kit (Perkin-Elmer, Waltham, Mass.), an acceptor bead mixture is added to each well and incubated for 2 h at room temperature in the dark. A donor bead mixture is then added to each well and incubated for 2 h at room temperature in the dark. Plates are read using a Synergy2 plate reader (Biotek, Winooski, Vt.) in Plate Mode with Timing Control. Read: (F)1: excitation: 680/30 nm, emission: Plug. 2: Excitation: Plug, emission: 570/100 nm. Top mirror 635 nm. Data is analyzed using Prism software (Graphpad, San Diego, Calif.) to calculate IC50 values and Excel software (Microsoft, Redmond, Wash.) to calculate stimulation compared to control.

A375res cells [4] = assay: Proliferation assay in vemurafenib-resistant A375res melanoma cells; conditions: Homo sapiens, 72 h, read-out: absolute IC50 values
Description: as §1

Compound | IC50 shift A375 to A375res (A375res cells [1]) | inhibition in vivo at 20 mg/kg [2] | IC50 [3] | IC50 (A375res cells [4]) | inhibition in vivo at 6 mg/kg ([2]; A-375, 6 mg/kg oral)
CNc1cc2nc(C)c(-c3cc(NC(=O)NCCC(C)(C)C#N)c(F)cc3C)cc2cn1 [Example 9, 1-(3-cyano-3-methylbutyl)-3-(2-fluoro-4-methyl-5-(2-methyl-7-(methylamino)-1,6-naphthyridin-3-yl)phenyl)urea] | 0.5-4.9 fold | 78% | 2 to 96 nM | 9 to 504 nM | –
CNc1cc2nc(C)c(-c3cc(NC(=O)NC4CCC(F)(F)CC4)c(F)cc3C)cc2cn1 [Example 12, 1-(4,4-difluorocyclohexyl)-3-(2-fluoro-4-methyl-5-(2-methyl-7-(methylamino)-1,6-naphthyridin-3-yl)phenyl)urea hydrochloride] | 0.5-4.9 fold | 58% | 2 to 96 nM | 9 to 504 nM | –
CNc1cc2nc(C)c(-c3cc(NC(=O)NCC4CC(C)(C)C4)c(F)cc3F)cc2cn1 [Example 13, 1-(2,4-difluoro-5-(2-methyl-7-(methylamino)-1,6-naphthyridin-3-yl)phenyl)-3-((3,3-dimethylcyclobutyl)methyl)urea hydrochloride] | 0.5-4.9 fold | – | 2 to 96 nM | 9 to 504 nM | –
CNc1cc2nc(C)c(-c3cc(NC(=O)NCCC(C)(C)C)c(F)cc3C)cc2cn1 [Example 17, 1-(3,3-dimethylbutyl)-3-(2-fluoro-4-methyl-5-(2-methyl-7-(methylamino)-1,6-naphthyridin-3-yl)phenyl)urea] | 0.5-4.9 fold | 89% | – | 9 to 504 nM | –
CNc1cc2nc(C)c(-c3cc(NC(=O)NC4CCOC(C)(C)C4)c(F)cc3C)cc2cn1 (centres unmarked) [Example 20, 1-(2,2-dimethyltetrahydro-2H-pyran-4-yl)-3-(2-fluoro-4-methyl-5-(2-methyl-7-(methylamino)-1,6-naphthyridin-3-yl)phenyl)urea hydrochloride] | 0.5-4.9 fold | – | 2 to 96 nM | 9 to 504 nM | –
CNc1cc2nc(C)c(-c3cc(NC(=O)NCCC4(C(F)(F)F)CC4)c(F)cc3C)cc2cn1 [Example 23, 1-(2-fluoro-4-methyl-5-(2-methyl-7-(methylamino)-1,6-naphthyridin-3-yl)phenyl)-3-(2-(1-(trifluoromethyl)cyclopropyl)ethyl)urea hydrochloride] | 0.5-4.9 fold | – | 2 to 96 nM | 9 to 504 nM | –
CNc1cc2nc(C)c(-c3cc(NC(=O)NCCC(C)(C)OC)c(F)cc3F)cc2cn1 [Example 24, 1-(2,4-difluoro-5-(2-methyl-7 (methylamino)-1,6-naphthyridin-3-yl)phenyl)-3-(3-methoxy-3-methylbutyl)urea hydrochloride] | – | 45% | 2 to 96 nM | 9 to 504 nM | –
CC(=O)Nc1cc2nc(C)c(-c3cc(NC(=O)NCCC(C)(C)C#N)c(F)cc3F)cc2cn1 [Example 43, N-(3-(5-(3-(3-cyano-3-methylbutyl)ureido)-2,4-difluorophenyl)-2-methyl-1,6-naphthyridin-7-yl)acetamide] | – | 55% | – | – | –
CNc1cc2nc(C)c(-c3cc(NC(=O)NCCC(C)C)c(F)cc3C)cc2cn1 [Example 45, 1-(2-fluoro-4-methyl-5-(2-methyl-7-(methylamino)-1,6-naphthyridin-3-yl)phenyl)-3-isopentylurea] | 0.5-4.9 fold | – | 2 to 96 nM | 9 to 504 nM | –
CNc1cc2nc(C)c(-c3cc(NC(=O)NCC(O)C(C)(C)C)c(F)cc3C)cc2cn1 (centres unmarked) [Example 55, 1-(2-fluoro-4-methyl-5-(2-methyl-7-(methylamino)-1,6-naphthyridin-3-yl)phenyl)-3-(2-hydroxy-3,3-dimethylbutyl)urea] | 0.5-4.9 fold | – | 2 to 96 nM | 9 to 504 nM | –
CNc1cc2nc(C)c(-c3cc(NC(=O)NC[C@@H](O)C(C)(C)C)c(F)cc3C)cc2cn1 [Example 56, (S)-1-(2-fluoro-4-methyl-5-(2-methyl-7-(methylamino)-1,6-naphthyridin-3-yl)phenyl)-3-(2-hydroxy-3,3-dimethylbutyl)urea] | – | – | 2 to 96 nM | – | 75%
Cc1cc(F)c(NC(=O)NCCC(C)(C)C)cc1-c1cc2cnc(NCCO)cc2nc1C [Example 64, 1-(3,3-dimethylbutyl)-3-(2-fluoro-5-(7-((2-hydroxyethyl)amino)-2-methyl-1,6-naphthyridin-3-yl)-4-methylphenyl)urea] | – | 79% | 2 to 96 nM | – | –
CNc1cc2nc(C)c(-c3cc(NC(=O)NC[C@@H](O)C(C)C)c(F)cc3C)cc2cn1 [Example 75, (S)-1-(2-fluoro-4-methyl-5-(2-methyl-7-(methylamino)-1,6-naphthyridin-3-yl)phenyl)-3-(2-hydroxy-3-methylbutyl)urea] | – | 89% | – | – | –
CNc1cc2nc(C)c(-c3cc(NC(=O)NC4CC(C)(C)C4)c(F)cc3F)cc2cn1 [Example 78, 1-(2,4-difluoro-5-(2-methyl-7-(methylamino)-1,6-naphthyridin-3-yl)phenyl)-3-(3,3-dimethylcyclobutyl)urea hydrochloride] | – | 68% | – | – | –
Cc1cc(F)c(NC(=O)NCCC2(C(F)(F)F)CC2)cc1-c1cc2cnc(N)cc2nc1C [Example 83, 1-(5-(7-amino-2-methyl-1,6-naphthyridin-3-yl)-2-fluoro-4-methylphenyl)-3-(2-(1-(trifluoromethyl)cyclopropyl)ethyl)urea hydrochloride] | 0.5-4.9 fold | – | 2 to 96 nM | 9 to 504 nM | –
CNc1cc2nc(C)c(-c3cc(NC(=O)NCCC4CC4)c(F)cc3C)cc2cn1 [Example 84, 1-(2-cyclopropylethyl)-3-(2-fluoro-4-methyl-5-(2-methyl-7-(methylamino)-1,6-naphthyridin-3-yl)phenyl)urea hydrochloride] | 0.5-4.9 fold | – | 2 to 96 nM | 9 to 504 nM | –
CNc1cc2nc(C)c(-c3cc(NC(=O)NC4CCC(F)(F)CC4)c(F)cc3F)cc2cn1 [Example 88, 1-(2,4-difluoro-5-(2-methyl-7-(methylamino)-1,6-naphthyridin-3-yl)phenyl)-3-(4,4-difluorocyclohexyl)urea hydrochloride] | 0.5-4.9 fold | – | 2 to 96 nM | 9 to 504 nM | –
CNc1cc2ncc(-c3cc(NC(=O)NCCC(C)(C)F)c(F)cc3C)cc2cn1 [Example 93, 1-(3-fluoro-3-methylbutyl)-3-(2-fluoro-4-methyl-5-(7-(methylamino)-1,6-naphthyridin-3-yl)phenyl)urea] | 0.5-4.9 fold | – | 2 to 96 nM | 9 to 504 nM | –
CNc1cc2nc(C)c(-c3cc(NC(=O)NCCC4(C)CC4)c(F)cc3F)cc2cn1 [Example 94, 1-(2,4-difluoro-5-(2-methyl-7-(methylamino)-1,6-naphthyridin-3-yl)phenyl)-3-(2-(1-methylcyclopropyl)ethyl)urea hydrochloride] | 0.5-4.9 fold | – | 2 to 96 nM | 9 to 504 nM | –
CC(=O)Nc1cc2nc(C)c(-c3ccc(F)c(NC(=O)NCCC(C)(C)C)c3)cc2cn1 [Example 103, N-(3-(3-(3-(3,3-dimethylbutyl)ureido)-4-fluorophenyl)-2-methyl-1,6-naphthyridin-7-yl)acetamide] | – | 90% | – | – | –
CC(=O)Nc1cc2nc(C)c(-c3cc(NC(=O)NCCC(C)(C)C)c(F)cc3F)cc2cn1 [Example 105, N-(3-(5-(3-(3,3-dimethylbutyl)ureido)-2,4-difluorophenyl)-2-methyl-1,6-naphthyridin-7-yl)acetamide] | – | 87% | – | – | –
Cc1cc(F)c(NC(=O)NCCC(C)(C)F)cc1-c1cc2cnc(NC=O)cc2nc1C [Example 125, N-(3-(4-fluoro-5-(3-(3-fluoro-3-methylbutyl)ureido)-2-methylphenyl)-2-methyl-1,6-naphthyridin-7-yl)formamide hydrochloride] | 0.5-4.9 fold | – | 2 to 96 nM | 9 to 504 nM | –
